Measurements taken from ChEMBL document CHEMBL4834472 (J Med Chem, 2021).

Legend:
[1] = molecular target: CDK2/Cyclin A1 (Homo sapiens, UniProt P24941); type: protein-complex assay
Description: Inhibition of CDK2/Cyclin A1 (unknown origin) at 1 uM using histone H1 as substrate preincubated for 20 mins followed by 33P-ATP addition and measured after 2 hrs by filter binding method

[2] = molecular target: Receptor-type tyrosine-protein kinase FLT3 (Homo sapiens, UniProt P36888, ITD)
[3] = test system: K562; assay: cells; details: Homo sapiens, K562, 72 h
Description: Antiproliferative activity against human K562 cells assessed as cell death measured after 72 hrs by resazurin dye based assay

[4] = test system: MV4-11; assay: cells; details: Homo sapiens, MV4-11, 72 h
Description: Antiproliferative activity against human MV4-11 cells assessed as cell death measured after 72 hrs by resazurin dye based assay

Receptor-type tyrosine-protein kinase FLT3, sequence (P36888 whole entry, looked up, change not shown): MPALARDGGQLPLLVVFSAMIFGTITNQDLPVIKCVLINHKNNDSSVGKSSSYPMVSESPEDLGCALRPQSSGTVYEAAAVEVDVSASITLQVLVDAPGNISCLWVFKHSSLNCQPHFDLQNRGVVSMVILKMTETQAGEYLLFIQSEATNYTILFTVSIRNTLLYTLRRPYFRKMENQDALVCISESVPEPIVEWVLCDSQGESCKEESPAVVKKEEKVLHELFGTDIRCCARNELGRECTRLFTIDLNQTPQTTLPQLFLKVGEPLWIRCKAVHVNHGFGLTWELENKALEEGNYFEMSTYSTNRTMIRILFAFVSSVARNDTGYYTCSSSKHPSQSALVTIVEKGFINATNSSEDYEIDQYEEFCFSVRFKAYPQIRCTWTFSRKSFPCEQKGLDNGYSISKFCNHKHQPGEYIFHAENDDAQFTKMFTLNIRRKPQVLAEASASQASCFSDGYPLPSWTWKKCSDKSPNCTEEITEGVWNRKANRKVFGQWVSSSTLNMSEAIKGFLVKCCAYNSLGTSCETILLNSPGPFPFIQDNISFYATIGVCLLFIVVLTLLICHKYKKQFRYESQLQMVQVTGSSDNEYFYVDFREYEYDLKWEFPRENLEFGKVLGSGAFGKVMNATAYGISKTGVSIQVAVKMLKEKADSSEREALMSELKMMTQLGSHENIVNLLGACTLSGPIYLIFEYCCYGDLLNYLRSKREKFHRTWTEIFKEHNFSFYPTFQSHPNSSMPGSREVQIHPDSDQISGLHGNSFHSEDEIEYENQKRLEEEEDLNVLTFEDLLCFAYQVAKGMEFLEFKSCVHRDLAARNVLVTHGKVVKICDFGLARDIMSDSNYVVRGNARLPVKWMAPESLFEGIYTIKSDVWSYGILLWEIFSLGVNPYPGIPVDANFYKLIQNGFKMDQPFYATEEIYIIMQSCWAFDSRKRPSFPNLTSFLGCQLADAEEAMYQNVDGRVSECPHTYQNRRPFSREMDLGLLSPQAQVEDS

| IC50 [1] | IC50 [2] | IC50 [3] | IC50 [4] | Structure (SMILES) |
| --- | --- | --- | --- | --- |
| 8240 nM | > 20000 nM | > 100000 nM | > 100000 nM | FC(F)(F)c1ccc(-c2cc(-c3c[nH]nc3C(F)(F)F)nc3ccc4[nH]ncc4c23)cc1 |
| 266 nM | 141 nM | 19100 nM | 440 nM | CN1CCN(C2CCc3c(c(-c4c[nH]nc4C(F)(F)F)nc4ccc5[nH]ncc5c34)C2)CC1 (configuration not stated) |
| 58 nM | 19 nM | 16000 nM | 740 nM | NCC1CCc2c(c(-c3c[nH]nc3C(F)(F)F)nc3c(F)cc4[nH]ncc4c23)C1 (configuration not stated) |
| 63 nM | 21 nM | 40100 nM | 1260 nM | FC(F)(F)c1n[nH]cc1-c1nc2ccc3[nH]nc(I)c3c2c2c1CCCC2 |
| 1270 nM | > 20000 nM | 65900 nM | 25700 nM | Fc1ccc(-c2cc(-c3c[nH]nc3C(F)(F)F)nc3ccc4[nH]ncc4c23)cc1Cl |
| 469 nM | > 20000 nM | > 100000 nM | 52500 nM | Fc1cc(F)cc(-c2cc(-c3c[nH]nc3C(F)(F)F)nc3ccc4[nH]ncc4c23)c1 |
| 111 nM | 118 nM | 6700 nM | 37 nM | CCOC(=O)C1CCc2c(c(-c3c[nH]nc3C(F)(F)F)nc3ccc4[nH]ncc4c23)C1 (configuration not stated) |
| 231 nM | 799 nM | > 100000 nM | 765 nM | O=S1(=O)CCc2c(c(-c3c[nH]nc3C(F)(F)F)nc3ccc4[nH]ncc4c23)C1 |
| 190 nM | 109 nM | 9250 nM | 92 nM | FC(F)(F)c1n[nH]cc1-c1nc2ccc3[nH]ncc3c2c2c1COCC2 |
| 237 nM | 3120 nM | 21900 nM | 2940 nM | Nc1ccc(-c2nc3ccc4[nH]ncc4c3c3c2CCCC3)cc1C(F)(F)F |
| 2320 nM | 41 nM | > 100000 nM | 2490 nM | FC(F)(F)c1n[nH]cc1-c1nc2ccc3[nH]nc(Cl)c3c2c2c1CCCC2 |
| 46 nM | 4 nM | 39100 nM | 84 nM | CCc1c(C)c(-c2c[nH]nc2C(F)(F)F)nc2ccc3[nH]ncc3c12 |
| 901 nM | 16 nM | 33000 nM | 550 nM | FC(F)(F)c1n[nH]cc1-c1nc2ccc3[nH]ncc3c2c2c1CC(N1CCOCC1)CC2 (configuration not stated) |
| 40 nM | 17 nM | 8600 nM | 24 nM | [O-][S+]1CCc2c(c(-c3c[nH]nc3C(F)(F)F)nc3ccc4[nH]ncc4c23)C1 (configuration not stated) |
| 1440 nM | 563 nM | > 100000 nM | 20000 nM | O=C(O)C1CCc2c(c(-c3c[nH]nc3C(F)(F)F)nc3ccc4[nH]ncc4c23)C1 (configuration not stated) |
| 107 nM | 107 nM | 11100 nM | 180 nM | FC(F)(F)c1n[nH]cc1-c1nc2c(C(F)(F)F)cc3[nH]ncc3c2c2c1CCCC2 |
| 10800 nM | > 20000 nM | > 100000 nM | 36300 nM | FC(F)(F)c1n[nH]cc1-c1nc2c(Br)cc3[nH]ncc3c2c2c1CCCC2 |
| 139 nM | 126 nM | 8100 nM | 14 nM | FC(F)(F)c1n[nH]cc1-c1nc2ccc3[nH]ncc3c2c2c1CC(C(F)(F)F)CC2 (configuration not stated) |
| 823 nM | 2990 nM | 76800 nM | 3620 nM | FC(F)(F)c1n[nH]cc1-c1cc(-c2ccncc2)c2c(ccc3[nH]ncc32)n1 |
| 20 nM | 16 nM | 22500 nM | 32 nM | OC1CCc2c(c(-c3c[nH]nc3C(F)(F)F)nc3ccc4[nH]ncc4c23)C1 (configuration not stated) |
| 320 nM | 20 nM | > 100000 nM | 920 nM | CC(=O)NC1CCc2c(c(-c3c[nH]nc3C(F)(F)F)nc3ccc4[nH]ncc4c23)C1 (configuration not stated) |
| 111 nM | 86 nM | 8810 nM | 123 nM | N#CC1CCc2c(c(-c3c[nH]nc3C(F)(F)F)nc3c(F)cc4[nH]ncc4c23)C1 (configuration not stated) |
| 31 nM | 3 nM | 25100 nM | 76 nM | FC(F)(F)c1n[nH]cc1-c1nc2ccc3[nH]ncc3c2c2c1CCCCC2 |
| 272 nM | 31 nM | 31200 nM | 660 nM | Fc1n[nH]c2ccc3nc(-c4c[nH]nc4C(F)(F)F)c4c(c3c12)CCCC4 |
| 1260 nM | 408 nM | 87800 nM | 400 nM | FC(F)(F)c1n[nH]cc1-c1nc2ccc3[nH]nnc3c2c2c1CCCC2 |
| 325 nM | 3 nM | 28900 nM | 544 nM | FC(F)(F)c1n[nH]cc1-c1nc2ccc3[nH]nc(Br)c3c2c2c1CCCC2 |
| 5970 nM | 3140 nM | 66600 nM | 3500 nM | NC1CCc2c(c(-c3c[nH]nc3C(F)(F)F)nc3ccc4[nH]ncc4c23)C1 (configuration not stated) |
| 87 nM | 368 nM | 78900 nM | 980 nM | FC(F)(F)c1n[nH]cc1-c1cc(C2CC2)c2c(ccc3[nH]ncc32)n1 |

Second part, the compound before the results:

| Structure (SMILES) | IC50 [1] | IC50 [2] | IC50 [3] | IC50 [4] |
| --- | --- | --- | --- | --- |
| FC(F)(F)c1n[nH]cc1-c1nc2c(N3CCCCC3)cc3[nH]ncc3c2c2c1CCCC2 | 5740 nM | 1250 nM | 20300 nM | 2390 nM |
| N#Cc1n[nH]c2ccc3nc(-c4c[nH]nc4C(F)(F)F)c4c(c3c12)CCCC4 | > 20000 nM | > 20000 nM | > 100000 nM | > 100000 nM |
| CC(C)c1nn(C)cc1-c1nc2ccc3[nH]ncc3c2c2c1CCCC2 | 1450 nM | 3840 nM | 77500 nM | 1400 nM |
| Cc1n[nH]c(C)c1-c1nc2ccc3[nH]ncc3c2c2c1CCCC2 | 107 nM | 194 nM | 8730 nM | 514 nM |
| CN1CCN(CC#Cc2n[nH]c3ccc4nc(-c5c[nH]nc5C(F)(F)F)c5c(c4c23)CCCC5)CC1 | 10000 nM | 18 nM | 24800 nM | 459 nM |
| Cn1ncc2c3c4c(c(-c5c[nH]nc5C(F)(F)F)nc3ccc21)CCCC4 | 3260 nM | 1690 nM | 44600 nM | 2420 nM |
| Cn1cc(-c2nc3ccc4[nH]ncc4c3c3c2CCCC3)c(C2CC2)n1 | 1130 nM | 3660 nM | 33800 nM | 1300 nM |
| Cc1n[nH]cc1-c1nc2c(F)cc3[nH]ncc3c2c2c1CCCC2 | 17 nM | 7 nM | 3770 nM | 113 nM |
| Cn1cc(-c2nc3ccc4[nH]ncc4c3c3c2CCCC3)c(C(F)(F)F)n1 | 556 nM | 549 nM | 10400 nM | 500 nM |
| Cc1n[nH]c2ccc3nc(-c4c[nH]nc4C(F)(F)F)c4c(c3c12)CCC(C#N)C4 (configuration not stated) | 333 nM | 15 nM | 9940 nM | 12 nM |
| c1n[nH]cc1-c1nc2ccc3[nH]ncc3c2c2c1CCCC2 | 72 nM | 90 nM | 3930 nM | 330 nM |
| Cc1n[nH]cc1-c1nc2ccc3[nH]nc(C)c3c2c2c1CCCC2 | 717 nM | 42 nM | 21100 nM | 687 nM |
| FC(F)(F)c1n[nH]cc1-c1nc2ccc3[nH]nc(Cl)c3c2c2c1CCCCC2 | 1720 nM | 34 nM | > 100000 nM | 2010 nM |
| FC(F)(F)c1n[nH]cc1-c1nc2ccc3sncc3c2c2c1CCCC2 | 5160 nM | 8490 nM | 56800 nM | 7350 nM |
| Cc1noc(C)c1-c1nc2ccc3[nH]ncc3c2c2c1CCCC2 | 555 nM | 2020 nM | 30800 nM | 880 nM |
| Cc1n[nH]c2ccc3nc(-c4c[nH]nc4C(F)(F)F)c4c(c3c12)CCC(N)C4 (configuration not stated) | 640 nM | 211 nM | 53800 nM | 319 nM |
| CCc1cnn2c(NCc3ccc[n+]([O-])c3)cc(N3CCCC[C@H]3CCO)nc12 [DINACICLIB] |  | > 2000 nM | 13 nM | 7 nM |
| c1[nH]nnc1-c1nc2ccc3[nH]ncc3c2c2c1CCCC2 | 180 nM | 132 nM | 9800 nM | 600 nM |
| CC(C)c1n[nH]cc1-c1nc2ccc3[nH]ncc3c2c2c1CCCC2 | 88 nM | 212 nM | 11100 nM | 610 nM |
